Experiment in all cases: cells
One experiment deals with HCT116/VM46. The experiment is classed as cell-based, human. How it is done: Compounds were tested for their cell growth inhibition of L1210 (ATCC no. CCL-219, mouse lymphocytic leukemia), HCT116 (ATCC no. CCL-247, human colorectal carcinoma), and HCT116/VM46 (a vinblastine-resistant strain of HCT116) cells in culture. A population of cells (>1×10^6 cells/mL as determined with a hemocytometer) was diluted with Dulbecco's Modified Eagle Medium (DMEM, Gibco) containing 10% fetal bovine serum (FBS, Gibco) to give a final concentration of 30,000 cells/mL. To each well of a 96-well plate (Corning® Costar®) was added 100 μL of the cell media solution with a multichannel pipet. The cultures were incubated at 37° C. in an atmosphere of 5% CO2 and 95% humidified air for 24 hours.
The test compounds were then added to the plate as follows: test compounds were diluted in DMSO to a concentration of 1 mM. 10-Fold serial dilutions in DMSO were next performed on a separate 96-well plate. Fresh culture media (100 μL) was added to each well of cells resulting in 200 μL of medium per well followed by 2 μL of each test agent. Compounds were tested in duplicate (n=2-8 times) at six concentrations between 0-1000 nM or 0-10000 nM. Following the addition of compound, cultures were incubated for an additional 72 hours.
The plates were incubated at 37° C. for 5 minutes (L1210) or 15 min (HCT116 and HCT116/VM46). After the given incubation time, 50 μL of 0.1 N NaOH was added to each well and the absorption at 405 nm was determined using a 96 well plate reader. […]

A further experiment deals with HCT116. In kind it is cell-based, human. A digest of the protocol:
(§1)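 Cells seeded at 30,000 cells/mL in DMEM with 10% FBS, then exposed for 72 h to compound at six concentrations spanning 0–1000 nM or 0–10000 nM, in duplicate. Final incubation at 37 °C lasted 5 min for L1210 and 15 min for HCT116.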

A further experiment concerns L1210. The experiment is classed as cell-based, mouse. The method, boiled down: as §1
A further experiment concerns A549-T24. The experiment is classed as cell-based, human. An excerpt:
(§2) 2001, 98:11737; Kavallaris et al., Brit. J. Cancer. 1999, 80:1020; and Kavallaris et al., J. Clin. Invest. 1997, 100:1282]. As a result, the comparison of cell growth inhibition of candidate drugs against A549 vs A549-T24 has been used to characterize potential resistance due to increased expression of class III β-tubulin [Goncalves et al., Proc. Natl. Acad. Sci. USA. 2001, 98:11737; Kavallaris et al., Brit. J. Cancer. 1999, 80:1020; and Kavallaris et al., J. Clin. Invest. 1997, 100:1282].

In a further experiment the test system is A549. In kind it is cell-based, human. The note with it: read-out: IC50 A549.
Source text: as §2

Where [1] appears, read: table in Background, C20′ substituent X, read-out: IC50, HCT116/VM46.
[2] abbreviates: table in Background, C20′ substituent X, read-out: IC50, HCT116.
The mark [3] stands for this setting: Table 5, read-out: IC50 HCT116/VM46.

Like-named read-outs stand apart in the source and are kept apart here.

For nine compounds, IC50 results are on record in patent US10689381B2 (priority 2017, dated 2020).

Consider `CCC1C[C@H]2CN(CCc3c([nH]c4ccccc34)[C@@](C(=O)OC)(c3cc4c(cc3OC)N(C)[C@H]3[C@@](O)(C(=O)OC)[C@H](OC(C)=O)[C@]5(CC)C=CCN6CC[C@]43[C@@H]65)C2)C1` (some centres unmarked) [Compound 4, reference compound], for which the results for the IC50 in the experiment on HCT116/VM46 (setting [1]) and in the experiment on HCT116 (setting [2]) were 600 nM and 60 nM, respectively.
For the compound `CC[C@]1(N=[N+]=[N-])C[C@H]2CN(CCc3c([nH]c4ccccc34)[C@@](C(=O)OC)(c3cc4c(cc3OC)N(C)[C@H]3[C@@](O)(C(=O)OC)[C@H](OC(C)=O)[C@]5(CC)C=CCN6CC[C@]43[C@@H]65)C2)C1` [Compound 5, 20′-azidovinblastine], the IC50 in the experiment with HCT116/VM46 (setting [1]) worked out at 5500 nM; in the experiment with HCT116 (setting [2]), 690 nM.
As for `CC[C@]1(N)C[C@H]2CN(CCc3c([nH]c4ccccc34)[C@@](C(=O)OC)(c3cc4c(cc3OC)N(C)[C@H]3[C@@](O)(C(=O)OC)[C@H](OC(C)=O)[C@]5(CC)C=CCN6CC[C@]43[C@@H]65)C2)C1` [Compound 6, 20′-aminovinblastine], the IC50 in the experiment with HCT116/VM46 (setting [1]) was over 10000 nM; in the experiment on HCT116 (setting [2]) it was 600 nM.
For the compound `CCC1(NC(=O)c2ccc(NC(C)=O)cc2)CC2CN(CCc3c([nH]c4ccccc34)C(C(=O)OC)(c3cc4c(cc3OC)N(C)C3C(O)(C(=O)OC)C(OC(C)=O)C5(CC)C=CCN6CCC43C65)C2)C1` (centres unmarked) [Compound 58], the IC50 in the experiment on L1210 is 0.06 nM; in the experiment on L1210 (Table 2), 1.6 nM; in the experiment on HCT116 (Table 2, read-out: IC50 HCT116), 0.8 nM; in the experiment on HCT116 (read-out: IC50 HCT116), 0.07 nM; with A549-T24 it was 0.13 nM; in the experiment with A549, 0.17 nM.
With `CCC1(NC(=O)c2ccc(NC(=O)OC(C)(C)C)cc2)CC2CN(CCc3c([nH]c4ccccc34)C(C(=O)OC)(c3cc4c(cc3OC)N(C)C3C(O)(C(=O)OC)C(OC(C)=O)C5(CC)C=CCN6CCC43C65)C2)C1` (centres unmarked) [Compound 60], the IC50 was 0.06 nM in the experiment on L1210; 0.3 nM in the experiment with L1210 (Table 2); 0.3 nM in the experiment with HCT116 (Table 2, read-out: IC50 HCT116); 0.07 nM in the experiment on HCT116 (read-out: IC50 HCT116); 0.09 nM in the experiment on A549-T24; 0.19 nM in the experiment on A549.
In the case of `CC[C@]1(NC(=O)c2ccc(NS(C)(=O)=O)cc2)C[C@H]2CN(CCc3c([nH]c4ccccc34)[C@@](C(=O)OC)(c3cc4c(cc3OC)N(C)[C@H]3[C@@](O)(C(=O)OC)[C@H](OC(C)=O)[C@]5(CC)C=CCN6CC[C@]43[C@@H]65)C2)C1` [Compound 61], the IC50 turned out to be 0.06 nM in the experiment with L1210; 0.4 nM with L1210 (Table 2); 0.3 nM in the experiment with HCT116 (Table 2, read-out: IC50 HCT116); 0.07 nM in the experiment on HCT116 (read-out: IC50 HCT116); 0.26 nM in the experiment on A549-T24; 0.53 nM with A549.
As for `CCC1(NC(=O)c2cn(C)cn2)CC2CN(CCc3c([nH]c4ccccc34)C(C(=O)OC)(c3cc4c(cc3OC)N(C)C3C(O)(C(=O)OC)C(OC(C)=O)C5(CC)C=CCN6CCC43C65)C2)C1` (centres unmarked) [Compound 142], the IC50 is over 1000 nM in the experiment with HCT116/VM46 (setting [3]); 80 nM with L1210 (Table 5); 50 nM in the experiment on HCT116 (Table 5, read-out: IC50 HCT116).
Regarding `CCC1(NC(=O)C2CCNCC2)CC2CN(CCc3c([nH]c4ccccc34)C(C(=O)OC)(c3cc4c(cc3OC)N(C)C3C(O)(C(=O)OC)C(OC(C)=O)C5(CC)C=CCN6CCC43C65)C2)C1` (centres unmarked) [Compound 146], the IC50 in the experiment with HCT116/VM46 (setting [3]) is over 10000 nM; in the experiment with L1210 (Table 5), 4200 nM; with HCT116 (Table 5, read-out: IC50 HCT116) it was over 10000 nM.
In the case of `CC[C@]1(NC(=O)c2ccc3c(c2)CCCC3)C[C@H]2CN(CCc3c([nH]c4ccc(F)cc34)[C@@](C(=O)OC)(c3cc4c(cc3OC)N(C)[C@H]3[C@@](O)(C(=O)OC)[C@H](OC(C)=O)[C@]5(CC)C=CCN6CC[C@]43[C@@H]65)C2)C1` [Compound 189], the IC50 with L1210 (Table 8, 10′-F compounds) was determined as 5 nM; with HCT116 (Table 8, 10′-F compounds, read-out: IC50 HCT116), 6.2 nM.
